Results reported in ChEMBL document CHEMBL2021911 (Bioorg Med Chem Lett, 2012).
Calls of active or inactive are those of the source. The calls are words filed in the database; no cut-off is given here.

Experiments:
[1] = biological target: T1, Muscarinic acetylcholine receptor M1 (Homo sapiens, UniProt P11229); experiment: Agonist activity at human muscarinic M1 receptor; assay type: functional; details: read-out: EC50
T1 sequence (P11229 whole entry): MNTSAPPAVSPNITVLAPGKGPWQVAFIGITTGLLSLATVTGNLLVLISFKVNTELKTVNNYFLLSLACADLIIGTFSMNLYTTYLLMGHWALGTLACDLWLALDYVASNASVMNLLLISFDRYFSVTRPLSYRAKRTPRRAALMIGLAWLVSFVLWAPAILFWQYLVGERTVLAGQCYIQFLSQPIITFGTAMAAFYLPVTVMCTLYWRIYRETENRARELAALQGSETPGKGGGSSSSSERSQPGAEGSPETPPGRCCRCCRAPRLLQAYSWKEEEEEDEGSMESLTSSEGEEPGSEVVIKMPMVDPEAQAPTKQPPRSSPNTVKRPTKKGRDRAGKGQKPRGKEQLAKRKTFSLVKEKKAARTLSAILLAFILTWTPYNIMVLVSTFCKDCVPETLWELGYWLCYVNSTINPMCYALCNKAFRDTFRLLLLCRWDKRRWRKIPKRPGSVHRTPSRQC

[2] = biological target: T2, Muscarinic acetylcholine receptor M1 (Homo sapiens) (UniProt P11229); experiment: Agonist activity at human muscarinic M1 receptor at 30 uM relative to acetylcholine; assay type: functional
T2 sequence (whole entry): T1 sequence (P11229 whole entry)

[3] = biological target: T2, Muscarinic acetylcholine receptor M1 (Homo sapiens); experiment: Agonist activity at human muscarinic M1 receptor expressed in TREx293 cells assessed as increase of soluble APPalpha release at 2 uM; assay type: functional, cell-based; details: HEK293
[4] = biological target: T2, Muscarinic acetylcholine receptor M1 (Homo sapiens); experiment: Agonist activity at human muscarinic M1 receptor at 30 uM by calcium mobilization assay relative to acetylcholine; assay type: functional
[5] = biological target: T3, Muscarinic acetylcholine receptor M2 (Homo sapiens, UniProt P08172); experiment: Antagonist activity at human muscarinic M2 receptor by calcium mobilization assay; assay type: functional
T3 sequence (P08172 whole entry): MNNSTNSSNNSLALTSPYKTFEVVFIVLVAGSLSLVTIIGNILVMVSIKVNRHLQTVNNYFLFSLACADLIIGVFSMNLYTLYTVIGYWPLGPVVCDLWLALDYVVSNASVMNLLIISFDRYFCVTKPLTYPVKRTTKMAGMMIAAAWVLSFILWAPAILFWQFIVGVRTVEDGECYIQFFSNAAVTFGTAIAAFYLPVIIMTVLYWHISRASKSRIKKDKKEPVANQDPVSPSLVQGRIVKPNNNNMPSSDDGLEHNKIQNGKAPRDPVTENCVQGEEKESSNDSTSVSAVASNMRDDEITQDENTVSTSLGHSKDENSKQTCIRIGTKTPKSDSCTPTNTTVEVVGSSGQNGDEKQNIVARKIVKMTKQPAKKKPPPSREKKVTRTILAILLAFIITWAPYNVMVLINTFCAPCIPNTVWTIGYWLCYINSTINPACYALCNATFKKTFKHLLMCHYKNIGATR

[6] = biological target: T4, Muscarinic acetylcholine receptor M2 (Homo sapiens) (UniProt P08172); experiment: Antagonist activity at human muscarinic M2 receptor assessed as remaining activity measured as percentage of maximum response generated from 80% of saturating dose of ACh at 30 uM by calcium mobilization assay; assay type: functional
T4 sequence (whole entry): T3 sequence (P08172 whole entry)

[7] = biological target: T5, Muscarinic acetylcholine receptor M3 (Homo sapiens, UniProt P20309); experiment: Antagonist activity at human muscarinic M3 receptor by calcium mobilization assay
Target sequence in this assay (P20309 whole entry): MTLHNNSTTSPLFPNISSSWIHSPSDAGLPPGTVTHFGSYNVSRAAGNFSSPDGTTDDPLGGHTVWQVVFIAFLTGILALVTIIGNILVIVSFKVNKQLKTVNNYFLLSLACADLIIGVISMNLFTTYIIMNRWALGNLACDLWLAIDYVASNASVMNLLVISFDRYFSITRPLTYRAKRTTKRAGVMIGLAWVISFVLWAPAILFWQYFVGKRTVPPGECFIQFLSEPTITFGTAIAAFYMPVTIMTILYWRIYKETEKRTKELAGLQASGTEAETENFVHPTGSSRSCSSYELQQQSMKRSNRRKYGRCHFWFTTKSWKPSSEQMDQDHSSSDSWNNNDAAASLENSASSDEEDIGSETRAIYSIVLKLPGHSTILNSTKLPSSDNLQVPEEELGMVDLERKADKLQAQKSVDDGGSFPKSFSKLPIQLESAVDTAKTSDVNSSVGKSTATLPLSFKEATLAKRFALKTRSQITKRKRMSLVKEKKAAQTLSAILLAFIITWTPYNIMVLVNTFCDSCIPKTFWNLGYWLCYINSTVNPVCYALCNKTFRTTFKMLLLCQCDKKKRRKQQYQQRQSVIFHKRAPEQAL

[8] = biological target: T5, Muscarinic acetylcholine receptor M3; experiment: Antagonist activity at human muscarinic M3 receptor assessed as remaining activity measured as percentage of maximum response generated from 80% of saturating dose of ACh at 30 uM by calcium mobilization assay; assay type: functional
Target sequence in this assay (P20309 whole entry, looked up): as the sequence (P20309 whole entry) above

[9] = biological target: T6, Muscarinic acetylcholine receptor M4 (Homo sapiens, UniProt P08173); experiment: Antagonist activity at human muscarinic M4 receptor by calcium mobilization assay; assay type: functional
T6 sequence (P08173 whole entry): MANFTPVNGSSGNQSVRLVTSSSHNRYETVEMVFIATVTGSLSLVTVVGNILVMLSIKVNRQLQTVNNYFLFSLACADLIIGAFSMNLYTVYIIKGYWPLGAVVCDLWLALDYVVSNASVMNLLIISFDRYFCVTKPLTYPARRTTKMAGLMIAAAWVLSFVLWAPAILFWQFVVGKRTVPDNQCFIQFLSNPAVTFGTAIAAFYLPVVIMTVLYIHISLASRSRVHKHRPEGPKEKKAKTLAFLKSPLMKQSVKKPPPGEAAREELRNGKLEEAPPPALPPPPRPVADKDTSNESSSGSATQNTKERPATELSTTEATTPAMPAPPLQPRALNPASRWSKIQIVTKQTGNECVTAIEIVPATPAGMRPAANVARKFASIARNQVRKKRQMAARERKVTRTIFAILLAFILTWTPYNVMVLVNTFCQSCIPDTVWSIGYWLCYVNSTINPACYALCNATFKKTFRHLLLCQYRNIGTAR

[10] = biological target: T7, Muscarinic acetylcholine receptor M4 (Homo sapiens) (UniProt P08173); experiment: Antagonist activity at human muscarinic M4 receptor assessed as remaining activity measured as percentage of maximum response generated from 80% of saturating dose of ACh at 30 uM by calcium mobilization assay; assay type: functional
T7 sequence (whole entry): T6 sequence (P08173 whole entry)

[11] = biological target: T8, Muscarinic acetylcholine receptor M5 (Homo sapiens, UniProt P08912); experiment: Antagonist activity at human muscarinic M5 receptor by calcium mobilization assay; assay type: functional
T8 sequence (P08912 whole entry): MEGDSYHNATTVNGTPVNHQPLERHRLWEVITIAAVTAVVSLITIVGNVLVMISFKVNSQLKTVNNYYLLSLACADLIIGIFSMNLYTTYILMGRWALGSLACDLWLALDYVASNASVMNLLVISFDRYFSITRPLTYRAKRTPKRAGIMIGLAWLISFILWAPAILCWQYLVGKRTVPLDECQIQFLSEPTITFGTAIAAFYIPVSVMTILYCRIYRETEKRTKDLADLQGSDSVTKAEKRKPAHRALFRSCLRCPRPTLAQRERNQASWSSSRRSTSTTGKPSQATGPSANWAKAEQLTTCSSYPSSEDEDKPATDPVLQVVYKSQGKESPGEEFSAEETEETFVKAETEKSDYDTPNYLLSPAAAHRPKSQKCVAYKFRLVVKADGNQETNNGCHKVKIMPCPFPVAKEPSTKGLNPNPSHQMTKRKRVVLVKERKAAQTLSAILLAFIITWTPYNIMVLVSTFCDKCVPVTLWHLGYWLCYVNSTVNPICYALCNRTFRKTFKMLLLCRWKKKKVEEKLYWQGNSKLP

[12] = biological target: T1, Muscarinic acetylcholine receptor M1; experiment: Agonist activity at human muscarinic M1 receptor by calcium mobilization assay; assay type: functional
[13] = biological target: T3, Muscarinic acetylcholine receptor M2; experiment: Agonist activity at human muscarinic M2 receptor by calcium mobilization assay; assay type: functional
[14] = biological target: T5, Muscarinic acetylcholine receptor M3; experiment: Agonist activity at human muscarinic M3 receptor by calcium mobilization assay; assay type: functional
Target sequence in this assay (P20309 whole entry): as the sequence (P20309 whole entry) above

[15] = biological target: T6, Muscarinic acetylcholine receptor M4; experiment: Agonist activity at human muscarinic M4 receptor by calcium mobilization assay; assay type: functional
[16] = biological target: T8, Muscarinic acetylcholine receptor M5; experiment: Agonist activity at human muscarinic M5 receptor by calcium mobilization assay; assay type: functional

Compound | EC50 [1] [nM] | Activity [2] [%] | further results
CCOC(=O)N1[C@@H]2CC[C@H]1C[C@H](NCCNC(=O)N1CCCCC1)C2 | 570 | 53 | –
CCOC(=O)N1C[C@H]2CC[C@@H](C1)[C@H]2NCCNC(=O)C1CCCCC1 | 1000 | 37 | –
CCOC(=O)N1C[C@H]2CC[C@@H](C1)[C@H]2NCCNC(=O)c1cccc(OC)c1 | 240 | 47 | –
COC(=O)C12CCC(NCCNC(=O)c3ccccc3)(CC1)CC2 | 6200 | 18 | –
CCOC(=O)N1[C@@H]2CC[C@H]1C[C@@H](NCCNC(=O)c1ccccc1)C2 | 110 | 34 | Activity [3]: Active; Activity [4]: 37%; IC50 ([5]; read-out: IC50): > 10000 nM; Activity [6]: 15%; IC50 [7]: > 10000 nM; Activity [8]: 13%; IC50 ([9]; read-out: IC50): 3100 nM; Activity [10]: 2%; IC50 ([11]; read-out: IC50): 4900 nM
CCOC(=O)N1[C@@H]2CC[C@H]1C[C@H](NCCNC(=O)N1CCOCC1)C2 | 2000 | 44 | –
CCOC(=O)N1[C@@H]2CC[C@H]1C[C@H](NCCNC(=O)N1[C@H](C)CCC[C@@H]1C)C2 | 2500 | 39 | –
CCOC(=O)N1[C@@H]2CC[C@H]1CC(NCCNC(=O)c1ccc(C)c(F)c1)C2 (mixture of isomers) | 470 | 40 | –
CCOC(=O)N1C[C@H]2CC[C@@H](C1)[C@H]2NCCNC(=O)c1ccccc1C | 170 | 51 | –
CCOC(=O)N1CCC(NCCNC(=O)c2ccccc2C)CC1 | 1600 | 35 | Activity [3]: Active; EC50 [12]: 2600 nM; Activity [4]: 34%; EC50 [13]: Not Active; EC50 [14]: Not Active; IC50 [5]: Not Active; EC50 [15]: Not Active; IC50 [9]: Not Active; EC50 [16]: Not Active; IC50 [11]: Not Active
CCOC(=O)N1C[C@@H]2C(NCCNC(=O)c3ccccc3C)[C@@H]2C1 (stereo not given in full) | 4100 | 60 | –
CCOC(=O)N1[C@@H]2CC[C@H]1C[C@H](NCCNC(=O)c1ccc(F)cc1)C2 | 830 | 54 | –
CCOC(=O)N1[C@@H]2CC[C@H]1C[C@H](NCCNC(=O)c1ccc(F)c(F)c1)C2 | 810 | 50 | –
